Here are results for 25 compounds from PubChem BioAssay (NCI).

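48-hour exposure; five concentrations; linearly interpolated endpoints. TGI: total growth inhibition.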 Some results are limits rather than exact numbers.

Holding throughout (assay): inhibition of tumour cell growth, NCI panel, 48 h
The test system of experiment [1] is NCI/ADR-RES ovarian.
For experiment [2], the system named is 786-0 renal.
Experiment [3] concerns CCRF-CEM leukemia.
In experiment [4] the test system is BT-549 breast.
Experiment [5] concerns RXF 393 renal.
The subject of experiment [6] is U251 CNS.
In experiment [7] the test system is EKVX NSCLC.
Experiment [8] deals with A498 renal.
Experiment [9] concerns UACC-62 melanoma.
The subject of experiment [10] is MDA-MB-435.
The test system of experiment [11] is OVCAR-4 ovarian.
For experiment [12], the system named is COLO 205 colon.
Experiment [13] concerns HL-60(TB) leukemia.

Regarding `O=c1[nH]c(NCc2cccnc2)nc2nc[nH]c12`, the TGI in experiment [1], in experiment [2], in experiment [3], in experiment [4], in experiment [5] and in [6] was > 100 µM in each case. For the same compound, the TGI in experiment [7], in experiment [8], in experiment [9], in experiment [10], in [11] and in [12] was > 100 µM in each case.

In the case of `CC1CCN(C(C)C)P(=S)(Cc2ccccc2)O1` (stereo not given), the TGI in experiment [1], in experiment [2], in [4], in [6], in experiment [7] and in experiment [9] was > 100 µM in each case. For the same compound, the TGI in experiment [10], in [11] and in experiment [12] was > 100 µM in each case.

Regarding `COC(=O)C(CNC(=O)/C=C/c1ccc(OC)c(OC)c1)NC(=O)/C=C/c1ccc(OC)c(OC)c1` (stereo not given), the TGI in [1], in [2], in experiment [3], in experiment [4], in experiment [5] and in [6] was > 100 µM each time. The TGI in experiment [7], in [8], in experiment [9], in [10], in experiment [11] and in experiment [12] was > 100 µM each time.

For `COc1ccc(/C=C2\N=C(N3CCCC(CO)C3)NC2=O)cc1` (stereo not given), the TGI in [1], in [2], in experiment [3], in [4], in [5] and in [6] was > 100 µM each time. Besides, the TGI in experiment [7], in [13], in experiment [9], in experiment [10], in experiment [11] and in experiment [12] was > 100 µM throughout.

Take `O=C(Cc1ccc2ccccc2c1)NCc1ccc(C(=O)NCCc2ccccc2)cc1`: the TGI in experiment [1], in experiment [2], in experiment [3], in experiment [4], in [5] and in experiment [6] was > 100 µM in each case. Further, the TGI in [7], in [8], in experiment [9], in experiment [10], in experiment [11] and in experiment [12] was > 100 µM in each case.

Consider `COc1ccc(C2SCC(=O)N2c2ccc(-n3c(-c4ccccc4)nc4ccccc4c3=O)cc2)cc1` (stereo not given), for which the TGI in experiment [1], in experiment [2], in experiment [3], in experiment [4], in [6] and in [7] was > 100 µM throughout. For the same compound, the TGI in experiment [8], in [13], in experiment [9], in [10], in experiment [11] and in [12] was > 100 µM each time.

Regarding `Nc1nc(Cl)cc(NCC2(CCO)CCC2)n1`, the TGI in [1], in [2], in experiment [3], in [4], in [5] and in [6] was > 100 µM in each case. Also, the TGI in experiment [7] was > 100 µM; in experiment [13], > 100 µM; in experiment [9] it was > 10 µM; in [10], > 100 µM; in experiment [11], > 100 µM.

For the compound `CN1CCC2(CC1)SSC1(CCN(C)CC1)S2`, the TGI in experiment [1], in experiment [2], in experiment [3], in experiment [4], in experiment [6] and in [13] was > 100 µM in each case. For the same compound, the TGI in experiment [9], in experiment [10], in experiment [11] and in experiment [12] was > 100 µM in each case.

On to `CCOP(=O)(CC(=O)C1CC1)OCC`, for which the TGI in experiment [1], in experiment [2], in experiment [3], in experiment [4], in experiment [6] and in experiment [7] was > 100 µM in each case. For the same compound, the TGI in [13], in [9], in experiment [11] and in experiment [12] was > 100 µM each time.

Turning to `COC(=O)C(Cc1c[nH]c2ccccc12)NC(=O)C(Cc1cnc[nH]1)NC(=O)C1CCC(=O)N1C(=O)OCc1ccccc1` (stereo not given), the TGI in [2], in experiment [3], in experiment [4], in experiment [5], in experiment [6] and in experiment [7] was > 100 µM throughout. The TGI was 68.3 µM in [8], > 100 µM in experiment [13], > 100 µM in [9] and > 100 µM in [12].

For the compound `Cc1nc2c(c(N3CCN(C)CC3)n1)Cc1ccccc1-2`, the TGI in experiment [1], in [2], in experiment [3], in [4], in experiment [5] and in experiment [6] was > 100 µM throughout. For the same compound, the TGI in experiment [7], in experiment [13], in experiment [9], in [10] and in [12] was > 100 µM in each case.

Take `COc1ccc2[nH]cc(CCNC(=O)[C@H](Cc3ccc(O)cc3)NC(=O)[C@@H](NCC(F)(F)F)C(C)C)c2c1`: the TGI in experiment [1], in experiment [2], in experiment [3], in experiment [4], in experiment [5] and in experiment [6] was > 100 µM each time. Moreover, the TGI is > 100 µM in experiment [7]; > 100 µM in experiment [13]; > 100 µM in [9]; 83.3 µM in [10]; > 100 µM in [11]; > 100 µM in experiment [12].

With `O=[N+]([O-])c1ncc(N(CCO)CCO)s1`, the TGI is > 100 µM in experiment [2]; 56.9 µM in [3]; 80.6 µM in experiment [4]; 33.4 µM in [5]; > 100 µM in [6]; > 100 µM in [7]. Moreover, the TGI in experiment [8] was > 100 µM; in [13] it was 40.7 µM; in experiment [9], 43.7 µM; in [10], > 100 µM; in experiment [11], > 100 µM; in experiment [12], 49.6 µM.

For the compound `C=CCC1(C(=O)OC)CCC/C(=N\O)C1` (stereo not given), the TGI in experiment [1], in experiment [2], in [3], in [4], in experiment [6] and in experiment [13] was > 10 µM in each case. Moreover, the TGI in [9], in experiment [10], in experiment [11] and in [12] was > 10 µM each time.

On to `O=C(O)/C=C/c1ccc(Oc2ccccc2C(=O)O)o1`, for which the TGI in experiment [1], in [2], in experiment [3], in experiment [4], in [6] and in experiment [13] was > 10 µM throughout. For the same compound, the TGI in [9], in experiment [10], in experiment [11] and in [12] was > 10 µM each time.

With `O=[N+]([O-])c1ccc(-c2csc(N=Nc3c(O)[nH]c4ccccc34)n2)cc1`, the TGI in experiment [1] is > 100 µM; in experiment [2] it was > 100 µM; in [4] it was 42.8 µM; in [6] it was > 100 µM; in experiment [7], > 100 µM; in experiment [10], > 100 µM. Besides, the TGI in experiment [11] and in [12] was > 100 µM throughout.

With `O=P1(c2ccccc2)C(c2ccccc2)CCC1c1ccccc1` (stereo not given), the TGI in experiment [2] was > 100 µM; in [3], > 100 µM; in [4] it was 85.5 µM; in experiment [5], > 100 µM; in [7], > 100 µM; in experiment [13] it was 43.4 µM. The TGI in experiment [9], in experiment [10] and in [12] was > 100 µM throughout.

As for `CCn1c(SCC(=O)N/N=C2\SCC(=O)N2c2ccc(C)cc2)nc2ccccc2c1=O`, the TGI in experiment [1] was 49.7 µM; in experiment [2] it was 35 µM; in experiment [3], > 100 µM; in experiment [5], 53.8 µM; in [6], 46.1 µM; in [7], 46.2 µM. Moreover, the TGI was 38.4 µM in experiment [8]; > 100 µM in [13]; 29.1 µM in experiment [9]; 43.8 µM in experiment [10]; 48.2 µM in experiment [11]; > 100 µM in experiment [12].

For `OC1NC2Nc3ccccc3NC2NC1O` (stereo not given), the TGI in experiment [1], in [2], in experiment [3], in experiment [5], in experiment [6] and in experiment [7] was > 100 µM throughout. Besides, the TGI in [8], in experiment [13], in experiment [9], in experiment [10], in experiment [11] and in experiment [12] was > 100 µM each time.

Take `COc1ccc(CCN2CCN(CCCc3ccccc3)CC2)cc1`: the TGI in experiment [1], in experiment [2], in experiment [3], in [4], in experiment [6] and in [7] was > 100 µM each time. The TGI is > 100 µM in experiment [8]; > 100 µM in [13]; > 100 µM in [9]; > 100 µM in [10]; > 100 µM in [11]; 54.3 µM in experiment [12].

On to `COC(=O)C1=C(C)NC(=O)N2[C@@H](CCOCc3ccccc3)CC[C@@H]12`, for which the TGI in experiment [1], in experiment [2], in experiment [3], in experiment [5], in experiment [6] and in [7] was > 50 µM each time. Further, the TGI in [8], in experiment [13], in experiment [9], in experiment [10], in [11] and in [12] was > 50 µM throughout.

Turning to `COC(=O)C1CCC(=O)N1C(c1ccc(OC)cc1)c1cc(OC)c(OC)c(OC)c1` (stereo not given), the TGI is 1.01 µM in experiment [1]; > 100 µM in experiment [2]; > 100 µM in experiment [3]; > 100 µM in experiment [4]; 0.361 µM in [5]; > 100 µM in experiment [6]. Also, the TGI is > 100 µM in [7]; > 100 µM in experiment [9]; 0.243 µM in experiment [10]; > 100 µM in [11]; 0.802 µM in experiment [12].

For `COC(=O)c1ccc(NCc2cc(OC)ccc2OC)cc1`, the TGI in [1], in experiment [2], in [3], in experiment [4], in [6] and in [7] was > 100 µM in each case. In addition, the TGI in [8] is 78.8 µM; in experiment [13], > 100 µM; in [9], > 100 µM; in experiment [10], > 100 µM; in experiment [11] it was > 100 µM; in experiment [12] it was > 100 µM.

On to `NCC(=O)Nc1ccccc1`, for which the TGI in experiment [1], in [2], in [4], in experiment [5], in [6] and in experiment [7] was > 100 µM in each case. The TGI in experiment [8], in experiment [9], in experiment [10] and in experiment [11] was > 100 µM throughout.

`COc1ccc2c(c1)c1c3c(ccc4ncn2c43)N(CCO)CCN=1`: the TGI in experiment [1] is 1.76 µM; in experiment [2], 1.06 µM; in experiment [3], 0.305 µM; in experiment [5], 0.473 µM; in [6] it was 1.09 µM; in [7], 1.08 µM. Moreover, the TGI in experiment [8] was 0.382 µM; in [13], 0.407 µM; in experiment [9], 0.602 µM; in [10], 0.834 µM; in [11], 0.915 µM; in experiment [12], 0.158 µM.
